Measured values from patent US20250346629A1, “USE OF D-ENANTIOMERIC PEPTIDE LIGANDS OF MONOMERIC ALPHA-SYNUCLEIN FOR THE THERAPY OF VARIOUS SYNUCLEINOPATHIES” (PRIAVOID GMBH, priority 2021, published 2025).
Read-outs that look alike come from different tables or passages of the source. Square brackets hold non-standard residues; d marks the D form. Peptide text beside a SMILES is read from it.

Key:
WT alpha-synuclein = WT alpha-synuclein (Homo sapiens, UniProt P37840); assay: Multicycle SPR experiment of WT alpha-synuclein and immobilized SVD-1 (FIG. 3); type: binding
Procedure: WT α-syn was injected in a concentration range of […] in PBS, PH 7.4. Regeneration: 2 M Gua-HCl and 0.1% SDS.

full-length α-syn = full-length α-syn (Homo sapiens, UniProt P37840); assay: MST measurement of fluorophore-labeled peptides with full-length α-syn (FIG. 10); type: binding; conditions: 100 nM labeled peptide, PBS pH 7.4, 25° C., individual measurement
Procedure: The peptides were fluorescence labeled by means of cysteine-maleimide coupling. SVD-1_Cys and SVD 1a_Cys were fluorescence labeled at the C-terminus with a fivefold or tenfold molar excess of TCEP and CF633-PEG2-maleimide (Sigma-Aldrich, USA). The labeling reaction was carried out in 25 mM NaPi, PH 7.0, for 2 h at RT. The labeled peptides were purified at 25° C. using an Agilent 1260 Infinity II System and a C-18 RP-HPLC column (Zorbax 300 SB-C8/SB-C 18, Agilent, USA). The mobile phases consisted of A: water+0.1% TFA, and B: acetonitrile+0.1% TFA. The fluorescence-labeled peptides and proteins were eluted with a gradient of 5-40% (v/v) B in 30 min. The fluorescence-labeled products were fractionated using the absorption wavelength of the fluorophore (CF633: 633 nm) and the pooled samples were subsequently lyophilized and redissolved in the appropriate buffer. The protein concentrations were determined by means of UV-vis and the fluorescence-labeled samples were stored at −20° C.
The experiments for microscale thermophoresis (MST) were carried out using a Monolith NT.115 device (NanoTemper Technologies GmbH, GE). Fluorescence-labeled peptides were diluted in PBS, PH 7.4 to a final concentration of 100 nM. […] The data was evaluated with the thermophoresis effect, using the NT analysis software (version 1.5.41) supplied by the manufacturer. […]

α-syn [1] = target: α-syn (Homo sapiens, UniProt P37840, A140C); assay: MST measurement of SVD-1 and α-syn (FIG. 2, α-syn 140C-C2-Alexa 647); type: binding
Description: 70% LED power; 60% MST power.

α-syn oligomers = α-syn oligomers (Homo sapiens, UniProt P37840); assay: α-syn oligomer elimination, HPLC-SEC of supernatant (FIG. 4); type: biochemical; conditions: SVD-1 150 and 250 μM; 5 μM monomer-equivalent oligomers, 3 days, 900 rpm, 37° C.
Description: The samples were centrifuged at 21 000×g and the supernatant was loaded onto an HPLC-SEC column.

α-syn [2] = target: α-syn (Homo sapiens, UniProt P37840); assay: Gradient centrifugation of α-syn aggregation samples (FIG. 6); type: biochemical; conditions: equimolar SVD-1, 9 days, 37° C., no shaking, Iodixanol gradient
Procedure: No shaking, no glass beads, at 37° C. After 9 days, the triplet samples were combined together and 100 μl was added to an Iodixanol gradient (5-50% (w/v)). 15 fractions, each of 140 μl were analyzed by means of RP-HPLC using a Zorbax 300 SB-C8 column and integrated to α-syn peaks.

PC12 cells = type: cell-based; conditions: rat, 24 h, 15 μM
Procedure: PC12 cells (Leibniz-Institut DSMZ, GE) were cultured at 37° C. on a collagen A-coated (Biochrom GmbH, GE) tissue culture flask in RPMI 1640 medium, supplemented with 5% fetal calf serum and 10% horse serum in an atmosphere humidified to 95% with 5% CO2. 10 000 cells per well in a volume of 100 μl were seeded into collagen A-coated 96-well plates (Thermo Fisher Scientific, USA and incubated for 24 hours at 37° C. and 300 rpm in a thermocycler.
Furthermore, 15 μM of the peptides alone, cell media, buffer without peptide and 0.1% Triton X-100 (cytotoxic compound) were used as controls. After further incubation in a 95% humidified atmosphere with 5% CO2 at 37° C. for 24 hours, the viability of the cells was measured using the Cell Proliferation Kit I (MTT) (Roche Applied Science, CH), following the manufacturer's protocol.
The MTT-formazan product was quantified by measuring the absorbance at 570 nm, corrected by subtracting the absorbance at 660 nm, in a FluoroStar Optima plate reader (BMG labtech, GE). All results were normalized to untreated cells grown only in medium. The significance test was carried out by one-way ANOVA with Bonferroni post-hoc analysis (OriginPro 2020, OriginLab, USA; n=4).
The significance test was carried out by one-way ANOVA with Bonferroni post-hoc analysis: […], ***p≤0.01. The means are stated±SD (n=4).

[3] = Solubility of D-peptides in buffer (UV-vis of supernatant after centrifugation); type: physicochemical; conditions: different buffers including PBS, aqueous buffer; different buffer conditions including PBS pH 7.4; 1 h at 37° C., 20 800×g centrifugation; read-out: starting concentration up to which the compound remained completely in the supernatant
Description: D-enantiomeric peptides with C-terminal amidation were acquired from CASLO (CASLO, DK) as a lyophilized chloride salt powder having a purity of >95%.

WT α-syn = WT α-syn (Homo sapiens, UniProt P37840); assay: Single cycle SPR experiment of WT α-syn on CM5-immobilized peptides (FIG. 8); conditions: 1:1 binding model fit, CM5 chip, PBS pH 7.4, 0.005% Tween-20
Procedure: Each peptide was immobilized on a CM5 sensor chip surface. WT α-syn was injected in a concentration range of 30-500 nM in PBS, PH 7.4, 0.005% (v/v) Tween-20. Regeneration was carried out after every cycle with 2 M Gua-HCl for 2×30 sec. The KDs were determined with a 1:1 binding model fit, as follows: SVD-1a: 15.7 nM; SVD-6a: 14.0 nM; SVD-10a: 12.3 nM.

[4] = tested on: αSynA53T-YFP cells (HEK293T); assay: Cell assay for seeded α-synuclein aggregation (FIG. 19); type: cell-based, human
Procedure: A construct encoding full-length A53T-mutated human α-syn and fused with YFP at the C-terminus was synthesized and introduced into the pMK-RQ expression vector (GeneArt; Thermo Fisher Scientific, USA). The α-synA53T-YFP construct was sub-cloned using the restriction sites NheI (5′) and NotI (3′) in the vector pIRESpuro3 (Clontech; Takara Bio, JPN). HEK293T cells (American Type Culture Collection) were cultured in high-glucose Dulbecco's Modified Eagle's Medium (DMEM; Sigma-Aldrich, USA) which had 10% fetal calf serum (Sigma-Aldrich, USA), 50 units/ml penicillin, and also 50 μg/ml streptomycin (Sigma-Aldrich, USA) added thereto. The cells were cultured at 37° C. in a humidified atmosphere with 5% CO2.
The cells plated in DMEM were transfected with Lipofectamine 2000 (Invitrogen; Thermo Fisher Scientific, USA). Stable cells were selected in DMEM with 1 μg/ml puromycin (EMD Millipore, USA). Monoclonal cell lines were produced by means of fluorescence-activated cell sorting of a polyclonal cell population in 96-well plates using a MoFlo XDP cell sorter (Beckman Coulter, USA). […]
The plates were then incubated at 37° C. in a humidified atmosphere with 5% CO2. On the third day, the cells were imaged in an IN Cell Analyzer 6500HS system (Cytiva, USA) using the blue and green fluorescence channels, and analyzed by the IN Carta Image Analysis software (Cytiva, USA) which had been used to establish an algorithm for identifying intracellular aggregates in living cells. Four wells were used for each condition and 16 images were recorded per well and analyzed by a fully-automated algorithm in order to prevent distortions. […]
In order to validate the inhibitory effect of SVD-1a in cells, use was made of the α-synA53T-YFP cell system which stably expresses human α-syn with the familial A53T mutation, fused with YFP, in HEK293T cells, and the fluorescence-based detection of aggregates makes it possible to clearly show the strongly fluorescent spots within the cells against the background, intracellularly after seeding with PFF oligomers. […] Panels C, F and I show αSynA53T-YFP fluorescence. […]

## CC[C@@H](C)[C@@H](NC(=O)[C@@H](Cc1c[nH]cn1)NC(=O)[C@@H](CCC(=O)O)NC(=O)[C@@H](CCC(N)=O)NC(=O)[C@@H](Cc1c[nH]c2ccccc12)NC(=O)[C@@H](Cc1ccc(O)cc1)NC(=O)[C@H](NC(=O)[C@@H](CCC(=O)O)NC(=O)[C@@H](Cc1c[nH]cn1)NC(=O)[C@H](NC(=O)[C@H]1CCCN1C(=O)[C@@H](CCSC)NC(=O)[C@H](N)CCCCN)[C@H](C)O)[C@H](C)O)C(=O)N[C@H](Cc1c[nH]c2ccccc12)C(=O)N[C@H](Cc1c[nH]cn1)C(=O)N[C@H](C)C(N)=O [SVD-1, kmpthetywqehiwha] (H-[dK][dM][dP][dT][dH][dE][dT][dY][dW][dQ][dE][dH][dI][dW][dH][dA]-NH2)
WT alpha-synuclein; heterogeneous ligand adjustment, PBS pH 7.4, read-out: KD1
  Kd: 0.0125 µM
WT alpha-synuclein; read-out: KD2, heterogeneous ligand adjustment, PBS pH 7.4
  Kd: 2 µM
full-length α-syn
  Kd: 0.17 µM
α-syn [1]
  Kd: 0.055 µM
α-syn oligomers
  α-syn oligomer in the supernatant: not possible to detect any α-syn oligomer in the supernatant
α-syn [2]
  fibril formation (fractions F6-F12): No fibril formation (F6-F12) was observed
PC12 cells
  cells saved (cell viability): 89%
[3]
  solubility at 1 h: ≥ 1000 µM

## CC(C)C[C@@H](NC(=O)[C@H]1CCCN1C(=O)[C@@H](CCC(N)=O)NC(=O)[C@@H](CCCNC(=N)N)NC(=O)[C@@H](Cc1c[nH]c2ccccc12)NC(=O)[C@@H](CC(=O)O)NC(=O)[C@H](N)Cc1ccc(O)cc1)C(=O)N[C@H](CO)C(=O)N[C@H](C)C(=O)N[C@H](CO)C(=O)N[C@H](CCCNC(=N)N)C(=O)N[C@H](Cc1ccccc1)C(=O)N[C@H](CC(C)C)C(=O)N[C@H](C)C(=O)N1CCC[C@@H]1C(=O)N[C@H](Cc1c[nH]c2ccccc12)C(=O)N[C@H](CCCNC(=N)N)C(=O)N[C@H](CCCNC(=N)N)C(=O)N[C@H](CCCNC(=N)N)C(=O)N[C@H](CCCNC(=N)N)C(=O)N[C@H](CCCNC(=N)N)C(N)=O [SVD-6a, ydwrqplsasrflapwrrrrr] (H-[dY][dD][dW][dR][dQ][dP][dL][dS][dA][dS][dR][dF][dL][dA][dP][dW][dR][dR][dR][dR][dR]-NH2)
WT α-syn
  Kd: 0.014 µM

## C[C@H](O)[C@@H](NC(=O)[C@@H](CC(N)=O)NC(=O)[C@@H](Cc1c[nH]c2ccccc12)NC(=O)[C@@H](Cc1ccc(O)cc1)NC(=O)[C@H]1CCCN1C(=O)[C@H]1CCCN1C(=O)[C@@H](CC(N)=O)NC(=O)[C@@H](Cc1c[nH]c2ccccc12)NC(=O)[C@@H](CCC(N)=O)NC(=O)[C@@H](CCC(N)=O)NC(=O)[C@@H](Cc1c[nH]c2ccccc12)NC(=O)[C@@H](Cc1c[nH]cn1)NC(=O)[C@@H](CO)NC(=O)[C@H](N)CO)C(=O)N[C@H](CC(=O)O)C(=O)N[C@H](CO)C(=O)N[C@H](CCCNC(=N)N)C(=O)N[C@H](CCCNC(=N)N)C(=O)N[C@H](CCCNC(=N)N)C(=O)N[C@H](CCCNC(=N)N)C(=O)N[C@H](CCCNC(=N)N)C(N)=O [SVD-10a, sshwqqwnppywntdsrrrrr] (H-[dS][dS][dH][dW][dQ][dQ][dW][dN][dP][dP][dY][dW][dN][dT][dD][dS][dR][dR][dR][dR][dR]-NH2)
WT α-syn
  Kd: 0.0123 µM

## kgvgnleyqlwalegk-NH2
[4]; 25 μM peptide, seeded with soluble α-syn-PFF oligomers, third day
  cells with aggregation: 85%
[4]; seeded with 30 nM PFF oligomers, day 3, two-stage transfection
  inhibition of α-syn aggregation in cells: not
